For one test, the system named is mouse ischemic model. Description: Middle cerebral artery occlusion (MCAO) and reperfusion, TTC staining of brain. As to conditions: MCAO 90 min, 24 h reperfusion, intravenous reEPO 2000 IU/kg (n = 4). The test is classed as in vivo. The source says:
The protocol of this experiment was approved by the Animal Care and Use Committee of the Keimyung University School of Medicine. After 1 week of acclimatization, mice were anesthetized with 3% isoflurane in a mixture of 70% N2O and 30% O2, and the anesthesia was maintained with 1.5–2.0% isoflurane. After the neck skin incision, the bifurcation of the common carotid artery was exposed. The external carotid artery was ligated, and the internal carotid artery was carefully isolated from the vagus nerve. A microvascular clip was placed across the right common carotid artery. Through the external carotid stump, a 7–0 surgical nylon monofilament with silicon coat was advanced into the right internal carotid artery up to the origin of the middle cerebral artery. […] During the surgery, rectal temperature was monitored and maintained at 37 ± 0.5 °C with a feedback-controlled heating pad (CMA 150, Stockholm, Sweden). […]
The brain was rapidly dissected out and coronally sliced into 2-mm-thick sections. […] The infarct volumes of the TTC-stained brain sections were imaged with a digital camera and analyzed. Using NIH ImageJ software (NIH, USA), the intensity of TTC in MCAO- and no-MCAO-performed hemispheres were digitally measured, and the ratio (MCAO versus non-MCAO) was presented as a percentage.

Test [1] has as its system rat primary cortical neurons. Description: Viability (Calcein-AM) under glutamate-induced excitotoxicity. It counts as cell-based. As to conditions: glutamate (30 μM) for 24 h, reEPO 0.5 IU/ml, peptides 1 ng/ml, n = 3, Fig. 4e. As for the experimental part: On the embryonic day 17, embryonic cerebral cortices were dissected from pregnant Sprague–Dawley rats. The cerebral cortices were treated with 0.25% trypsin-EDTA (#25200056, Gibco, USA) and then mechanically dissociated into single cells by pipetting. The dissociated cells were plated on 96-well plates coated by 50 μg/ml poly-L-lysine (P8920, Sigma-Aldrich, USA) at a density of 2.5 × 10^4 cells per well. They were incubated in neurobasal medium (#21103049, Gibco, USA) containing 2% B27 supplement (#17504044, Gibco, USA), 0.5 mM L-glutamine (#15430614, Gibco, USA), 25 μM glutamic acid (#G1251, Sigma-Aldrich, USA), and 1% penicillin/streptomycin (#15140122, Gibco, USA) at 37°C with 5% CO2. The medium was changed to a fresh medium without glutamate every 3–4 days, and on day 10, glutamic acid (30 μM) was added to induce excitotoxicity in the cells treated with or without reEPO and peptides.
To measure the viability of rat primary cortical neurons, we used Calcein-AM (#C3100MP, Invitrogen, USA). Cultured rat cortical neurons plated on 96-well plates (2.5 × 10^4 cells per well) were incubated with Calcein-AM (3 μM) for 30 min after various treatments. The intensity of the Calcein-AM signal (excitation, 485 nm; detection 535 nm) was measured by using a micro plate reader (VersaMax, Molecular Devices, USA).

In the case of “reEPO: Recombinant human EPO (Epoetin-α, CJ HealthCare Corporation)”, the “TTC staining in MCAO-performed versus contralateral side (brain injury)” value in the test with mouse ischemic model is recorded as “inhibited extinction of TTC-staining in MCAO-performed side”. The “Neuroprotective effect against glutamate-induced excitotoxicity (viability)” value in test [1] was “showed a neuroprotective effect against glutamate-induced excitotoxicity”.

(Values after paper PMC8715119, “Second-generation non-hematopoietic erythropoietin-derived peptide for neuroprotection” (Redox Biology, 2021).)
